Experimental data as given in patent US20220362401A1, “PARTICLES, METHOD FOR PRODUCING PARTICLES, DRUG, METHOD FOR PRODUCING DRUG, AND ANTI-CANCER AGENT” (THE UNIVERSITY OF KITAKYUSHU, priority 2019, published 2022).

System: mouse colorectal cancer cell CT26
Test: Anti-tumor effect in tumor-bearing mice, transition of tumor volume
Type: in vivo, mice (BALB/c)
Conditions: i.v. injection, α-mangostin 10 mg/kg, nanoparticles of average particle size 20 nm, FIG. 9
Experimental: The anti-tumor effect of the particles of the present invention containing α-mangostin was examined using mice (BALB/c, 7 weeks old, male) that bore the mouse colorectal cancer cell CT26. It was confirmed that the size of the tumor that the mice bore reached 100 mm^3 (7 days after), and a sample was intravenously administered (i. v. injection). The doses of α-mangostin at this time were standardized to 10 mg/kg. The transition of the tumor volume was observed after the administration.
Nanoparticles: average particle size: 20 nm (produced under the conditions of X (TX100): 0.15 mM and Y (ECH): 2.1 mL of Production Example 5) α-mangostin: Tokyo Chemical Industry Co., Ltd. Buffer solution: phosphate buffer (pH 7.5) nanoparticles containing no α-mangostin: only the nanoparticles (50 mg/mL) α-mangostin solution: α-mangostin solution (1.0 mM) containing 0.4 vol % DMSO, 2 vol % ethanol, and 2 vol TWEEN 80 (surfactant) nanoparticles containing α-mangostin: solution in which α-mangostin was contained in the nanoparticles (nanoparticle concentration: 50 mg/mL, α-mangostin concentration: 1.0 mM) Experimental data (animal experiment using mice)

COc1c(O)cc2oc3cc(O)c(CC=C(C)C)c(O)c3c(=O)c2c1CC=C(C)C [MGS, α-mangostin]
effect of suppressing the cancer growth (tumor volume): not observed
